Measurements reported in PMC8301423, “The Effects of Temperature and Pressure on Protein-Ligand Binding in the Presence of Mars-Relevant Salts” (Biology, 2021).
Where “and” joins values, the source holds several entries; their conditions need not be identical. Equal values may be shown once.

How the values were obtained:
[1] = target: T1, bovine serum albumin (BSA) (Bos taurus, UniProt P02769); conditions: neat buffer (10 mM Tris-HCl), no salt; cited from earlier work
T1 construct: BSA, molecular weight of 66 kDa, 583 residues; purchased Sigma Aldrich Chemicals (Taufkirchen, Germany)

[2] = target: T1, bovine serum albumin (BSA); experiment: Job's plot (method of continuous variation) by steady-state fluorescence for binding stoichiometry; conditions: 1 bar
Method: First, we explored the impact of 250 mM MgCl2, Mg(ClO4)2, and MgSO4 on the ligand binding process at 25 °C and ambient pressure (1 bar). To be able to determine the binding constant, it is of fundamental importance to exactly know the stoichiometry of the complex formed. In this way, a proper binding model can be applied in the data analysis of the measured binding isotherms, providing the most appropriate value of the binding constant, Kb. We applied the method of continuous variation (or Job’s plot) for the estimation of the binding stoichiometry by means of steady-state fluorescence spectroscopy. A series of solutions were prepared such that the total concentration (i.e., [ANS] + [BSA]) is constant, while the mole fractions of the interacting partners were varied. Discontinuities in the plot of fluorescence intensity vs. xANS (where xANS is the mole fraction of ANS) are indicative of the stoichiometry of the complex formed.

[3] = target: T1, bovine serum albumin (BSA); experiment: High hydrostatic pressure fluorescence titration of ANS with BSA (1-2000 bar); format: binding; conditions: for Binding volume ΔVb1 (first binding site): from slope of lnKb1 vs p (1-2000 bar); for Binding volume ΔVb1 (first binding site) / Binding volume ΔVb2 (second binding site) / Binding volume ΔVb: per mol of protein; for Binding volume ΔVb2 (second binding site): from slope of lnKb2 vs p (1-2000 bar); for Binding volume ΔVb: from slope of lnKb vs p (1-2000 bar)
Description: The extent of complex formation between ANS and BSA was followed by means of steady-state fluorescence spectroscopy using a K2 fluorometer from ISS, Inc. (Champaign, IL, USA). The binding isotherms were obtained by recording ANS emission spectra by exciting the solutions at 350 nm and recording the emission intensities in the range 400–550 nm. The width slits of the excitation and emission monochromators were both set to 8 nm. Briefly, a series of solutions with a fixed concentration of ANS at ~5 µM were prepared, and the concentration of BSA was varied between 0 and ~40 µM. Then estimation of the binding constants (Kb) was performed by using a plot of ΔF = F − F0 (where F is the fluorescence intensity of ANS at the maximum in the presence of BSA, and F0 is the intensity of ANS in the absence of BSA) as a function of total BSA concentration and fitting the experimental data according to an equivalent and independent binding sites model or to two classes of non-equivalent and independent binding-site models, as described in detail in Reference.
For the pressure dependent measurements, the high-pressure cell system from ISS and quartz cuvettes were used. The pressure was controlled by means of a manual pump, and water was used as pressurizing fluid. A pressure range from 1 to 2000 bar was explored. The ANS and BSA solutions were mixed, vortexed, and then filled into the sample cell, which was sealed with DuraSeal^TM laboratory stretch film and placed into the high-pressure vessel. The stretch film allowed for the pressure transmission in the sample cuvette.
In the next step, we explored the impact of high hydrostatic pressure (HHP) on the binding of ANS to BSA in the presence of the three salts and in the temperature range between 5 and 25 °C. To this end, we performed the same titration experiments following the complex formation by means of HHP fluorescence spectroscopy.
From the pressure dependence of the Kb values, the volume change upon binding, the protein–ligand binding volume ΔVb, can be determined (for an in-depth discussion of pressure effects on ligand binding, please refer to Reference and references therein):(1) [∂lnKb/∂p]T=−ΔVb/RT
Here, [∂lnKb/∂p]T is the derivative of the logarithm of the binding constant (Kb) with respect to pressure (p) at constant temperature (T). R is the universal gas constant. ΔVb is the binding volume defined as the difference between the partial molar volume of the complex (PL, where P is the protein and L the ligand) and the sum of the partial molar volumes of the uncomplexed state (P+L). Thus, the binding volume can be directly estimated by taking the slope of a plot of lnKb vs. p, assuming that the volume change is independent of pressure in the (here rather small) pressure range covered.

[4] = 250 mM Mg(ClO4)2, 25 °C, [ANS]+[BSA] 35 µM

T1 sequence (P02769 25-607): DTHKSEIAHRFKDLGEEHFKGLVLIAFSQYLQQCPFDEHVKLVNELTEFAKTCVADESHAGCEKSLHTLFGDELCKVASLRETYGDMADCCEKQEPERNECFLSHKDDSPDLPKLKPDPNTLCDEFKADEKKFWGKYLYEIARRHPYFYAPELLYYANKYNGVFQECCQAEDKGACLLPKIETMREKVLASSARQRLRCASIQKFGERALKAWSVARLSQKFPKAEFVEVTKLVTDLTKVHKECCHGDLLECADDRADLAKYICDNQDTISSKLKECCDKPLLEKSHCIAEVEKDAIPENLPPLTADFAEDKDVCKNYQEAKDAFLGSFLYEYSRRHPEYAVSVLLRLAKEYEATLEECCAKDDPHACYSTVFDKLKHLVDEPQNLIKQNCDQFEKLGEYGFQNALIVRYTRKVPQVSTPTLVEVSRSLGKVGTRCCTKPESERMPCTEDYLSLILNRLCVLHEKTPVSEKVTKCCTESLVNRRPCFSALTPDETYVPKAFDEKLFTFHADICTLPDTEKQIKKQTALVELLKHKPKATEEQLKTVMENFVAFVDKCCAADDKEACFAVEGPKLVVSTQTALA

O=S(=O)(O)c1cccc2cccc(Nc3ccccc3)c12 [ANS, 8-anilinonaphthalene-1-sulfonic acid]
ANS molecules bound on average to one BSA molecule [1]: three
ANS molecules bound to one BSA molecule ([2]; 250 mM Mg(ClO4)2, 25 °C): two
Job's plot first inflection point xANS [2, 4]: 0.5
Job's plot second inflection point xANS [2, 4]: ≈ 0.65
Job's plot inflection point xANS (mole fraction of ANS) ([2]; 250 mM MgCl2, 25 °C, [ANS]+[BSA] 35 µM): ≈ 0.75
ANS molecules bound to one BSA molecule ([2]; 250 mM MgSO4, 25 °C): three
Job's plot inflection point xANS (mole fraction of ANS) ([2]; 250 mM MgSO4, 25 °C, [ANS]+[BSA] 35 µM): ≈ 0.75
Binding volume ΔVb1 (first binding site) ([3]; 250 mM Mg(ClO4)2, 5 °C): -7.4 mL/mol and -7.4 ± 2.4 mL/mol
Binding volume ΔVb2 (second binding site) ([3]; 250 mM Mg(ClO4)2, 5 °C): -12.9 mL/mol and -12.9 ± 3.2 mL/mol
Binding volume ΔVb1 (first binding site) ([3]; 250 mM Mg(ClO4)2, 15 °C): -6.0 ± 1.0 mL/mol
Binding volume ΔVb2 (second binding site) ([3]; 250 mM Mg(ClO4)2, 15 °C): -5.0 ± 1.0 mL/mol
Binding volume ΔVb1 (first binding site) ([3]; 250 mM Mg(ClO4)2, 25 °C): 6.0 ± 2.0 mL/mol
Binding volume ΔVb2 (second binding site) ([3]; 250 mM Mg(ClO4)2, 25 °C): 2.0 ± 1.0 mL/mol
Increase of Kb with pressure (factor) ([3]; 250 mM MgCl2, 5 °C, up to 2 kbar): about a factor of two
Binding volume ΔVb ([3]; 250 mM MgCl2, 15 °C): -2.5 ± 0.4 mL/mol
Binding volume ΔVb ([3]; 250 mM MgCl2, 25 °C): -1.0 ± 1.0 mL/mol
Binding volume ΔVb ([3]; 250 mM MgSO4, 5 °C): 2.0 ± 1.0 mL/mol
Binding volume ΔVb ([3]; 250 mM MgSO4, 15 °C): -2.0 ± 1.0 mL/mol
Binding volume ΔVb ([3]; 250 mM MgSO4, 25 °C): 3.6 ± 0.5 mL/mol
Kd ([3]; Binding constant Kb1, 250 mM Mg(ClO4)2, 5 °C, 1 bar): 5260 nM
Kd ([3]; Binding constant Kb1, 250 mM Mg(ClO4)2, 5 °C, 500 bar): 3130 nM
Kd ([3]; Binding constant Kb1, 250 mM Mg(ClO4)2, 5 °C, 1000 bar): 2940 nM
Kd ([3]; Binding constant Kb1, 250 mM Mg(ClO4)2, 5 °C, 1500 bar): 2860 nM
Kd ([3]; Binding constant Kb1, 250 mM Mg(ClO4)2, 5 °C, 2000 bar): 2560 nM
Kd ([3]; Binding constant Kb1, 250 mM Mg(ClO4)2, 15 °C, 1 bar): 6670 nM
Kd ([3]; Binding constant Kb1, 250 mM Mg(ClO4)2, 15 °C, 500 bar): 7140 nM
Kd ([3]; Binding constant Kb1, 250 mM Mg(ClO4)2, 15 °C, 1000 bar): 5260 nM
Kd ([3]; Binding constant Kb1, 250 mM Mg(ClO4)2, 15 °C, 1500 bar): 4760 nM
Kd ([3]; Binding constant Kb1, 250 mM Mg(ClO4)2, 15 °C, 2000 bar): 3850 nM
Kd ([3]; Binding constant Kb1, 250 mM Mg(ClO4)2, 25 °C, 1 bar): 1690 nM
Kd ([3]; Binding constant Kb1, 250 mM Mg(ClO4)2, 25 °C, 500 bar): 1690 nM
Kd ([3]; Binding constant Kb1, 250 mM Mg(ClO4)2, 25 °C, 1000 bar): 2630 nM
Kd ([3]; Binding constant Kb1, 250 mM Mg(ClO4)2, 25 °C, 1500 bar): 2940 nM
Kd ([3]; Binding constant Kb1, 250 mM Mg(ClO4)2, 25 °C, 2000 bar): 2500 nM
Kd ([3]; Binding constant Kb1, 250 mM MgCl2, 5 °C, 1 bar): 1000 ± 100 nM
Kd ([3]; Binding constant Kb1, 250 mM MgCl2, 5 °C, 500 bar): 1000 ± 200 nM
Kd ([3]; Binding constant Kb1, 250 mM MgCl2, 5 °C, 1000 bar): 833 nM
Kd ([3]; Binding constant Kb1, 250 mM MgCl2, 5 °C, 1500 bar): 556 nM
Kd ([3]; Binding constant Kb1, 250 mM MgCl2, 5 °C, 2000 bar): 526 nM
